Results: patent US20040053822A1, “Inducing cellular immune responses to mage2/3 using peptide and nucleic acid compositions” (priority 2002, published 2004)
Residues, ends and D or L forms follow the SMILES beside them.

Columns and labels:
[1] = test system: 0.221A2.1 cell line (peptide-loaded target); assay: Primary CTL induction from normal donor PBMC, 51Cr release on peptide-pulsed targets; format: cell-based, human
Method: (§1) The melanoma cells were treated with 100 U/ml IFNγ (Genzyme) for 48 hours at 37° C. before use as targets in the ^51Cr release and in situ IFNγ assays.
The monocytes were purified by plating 10×10^6 PBMC/well in a 6-well plate. After 2 hours at 37° C., the non-adherent cells were removed by gently shaking the plates and aspirating the supernatants. The wells were washed a total of three times with 3 ml RPMI to remove most of the non-adherent and loosely adherent cells. Three ml of complete medium containing 50 ng/ml of GM-CSF and 1,000 U/ml of IL4 were then added to each well. DC were used for CTL induction cultures following 7 days of culture.
Induction of CTL with DC and Peptide: CD8+ T-cells were isolated by positive selection with Dynal immunomagnetic beads (Dynabeads® M-450) and the detacha-bead® reagent. Typically about 200-250×10^6 PBMC were processed to obtain 24×10^6 CD8^+ T-cells (enough for a 48-well plate culture). Briefly, the PBMCs were thawed in RPMI with 30 μg/ml DNAse, washed once with PBS containing 1% human AB serum and resuspended in PBS/1% AB serum at a concentration of 20×10^6 cells/ml. The magnetic beads were washed 3 times with PBS/AB serum, added to the cells (140 μl beads/20×10^6 cells) and incubated for 1 hour at 4° C. with continuous mixing. The beads and cells were washed 4× with PBS/AB serum to remove the nonadherent cells and resuspended at 100×10^6 cells/ml (based on the original cell number) in PBS/AB serum containing 100 μ/ml detacha-bead® reagent and 30 μg/ml DNAse. The mixture is incubated for 1 hour at room temperature with continuous mixing. The beads were washed again with PBS/AB/DNAse to collect the CD8+ T-cells. The DC were collected and centrifuged at 1300 rpm for 5-7 minutes, washed once with PBS with 1% BSA, counted and pulsed with 40 μg/ml of peptide at a cell concentration of 1-2×10^6/ml in the presence of 3 μg/ml β2- microglobulin for 4 hours at 20° C. The DC were then irradiated (4,200 rads), washed 1 time with medium and counted again.
Setting up induction cultures: 0.25 ml cytokine-generated DC (@1×10^5 cells/ml) were co-cultured with 0.25 ml of CD8+ T-cells (@2×10^6 cell/ml) in each well of a 48-well plate in the presence of 10 ng/ml of IL-7. rHuman IL10 was added the next day at a final concentration of 10 ng/ml and rhuman IL2 was added 48 hours later at 10 IU/ml.
Restimulation of the induction cultures with peptide-pulsed adherent cells: Seven and fourteen days after the primary induction the cells were restimulated with peptide-pulsed adherent cells. The PBMCS were thawed and washed twice with RPMI and DNAse. The cells were resuspended at 5×10^6 cells/ml and irradiated at ˜4200 rads. The PBMCs were plated at 2×10^6 in 0.5 ml complete medium per well and incubated for 2 hours at 37° C. The plates were washed twice with RPMI by tapping the plate gently to remove the nonadherent cells and the adherent cells pulsed with 10 μg/ml of peptide in the presence of 3 μg/ml β2 microglobulin in 0.25 ml RPMI/5% AB per well for 2 hours at 37° C. Peptide solution from each well was aspirated and the wells were washed once with RPMI. Most of the media was aspirated from the induction cultures (CD8+ cells) and brought to 0.5 ml with fresh media. The cells were then transferred to the wells containing the peptide-pulsed adherent cells. Twenty four hours later rhuman IL10 was added at a final concentration of 10 ng/ml and rhuman IL2 was added the next day and again 2-3 days later at 50 IU/ml (Tsai et al., Critical Reviews in Immunology 18(l-2):65-75, 1998). Seven days later the cultures were assayed for CTL activity in a ^51Cr release assay. In some experiments the cultures were assayed for peptide-specific recognition in the in situ IFNγ ELISA at the time of the second restimulation followed by assay of endogenous recognition 7 days later. After expansion, activity was measured in both assays for a side by side comparison. […]

[2] = test system: melanoma cell lines (624 mel and 888 mel); assay: Primary CTL induction, 51Cr release on tumor targets (endogenous recognition); format: cell-based, human
Method: as §1
Restimulation of the induction cultures with peptide-pulsed adherent cells: Seven and fourteen days after the primary induction the cells were restimulated with peptide-pulsed adherent cells. The PBMCS were thawed and washed twice with RPMI and DNAse. The cells were resuspended at 5×10^6 cells/ml and irradiated at ˜4200 rads. The PBMCs were plated at 2×10^6 in 0.5 ml complete medium per well and incubated for 2 hours at 37° C. The plates were washed twice with RPMI by tapping the plate gently to remove the nonadherent cells and the adherent cells pulsed with 10 μg/ml of peptide in the presence of 3 μg/ml β2 microglobulin in 0.25 ml RPMI/5% AB per well for 2 hours at 37° C. Peptide solution from each well was aspirated and the wells were washed once with RPMI. Most of the media was aspirated from the induction cultures (CD8+ cells) and brought to 0.5 ml with fresh media. The cells were then transferred to the wells containing the peptide-pulsed adherent cells. Twenty four hours later rhuman IL10 was added at a final concentration of 10 ng/ml and rhuman IL2 was added the next day and again 2-3 days later at 50 IU/ml (Tsai et al., Critical Reviews in Immunology 18(l-2):65-75, 1998). Seven days later the cultures were assayed for CTL activity in a ^51Cr release assay. In some experiments the cultures were assayed for peptide-specific recognition in the in situ IFNγ ELISA at the time of the second restimulation followed by assay of endogenous recognition 7 days later. After expansion, activity was measured in both assays for a side by side comparison.
Seven days after the second restimulation, cytotoxicity was determined in a standard (5 hr) ^51Cr release assay by assaying individual wells at a single E:T. Peptide-pulsed targets were prepared by incubating the cells with 10 μg/ml peptide overnight at 37° C.
Adherent target cells were removed from culture flasks with trypsin-EDTA. Target cells were labelled with 200 μCi of ^51Cr sodium chromate (Dupont, Wilmington, Del.) for 1 hour at 37° C. […] Target cells.(100 μl) and 100 μl of effectors were plated in 96 well round-bottom plates and incubated for 5 hours at 37° C. At that time, 100 μl of supernatant were collected from each well and percent lysis was determined according to the formula: [(cpm of the test sample−cpm of the spontaneous ^51Cr release sample)/(cpm of the maximal ^51Cr release sample−cpm of the spontaneous ^51Cr release sample)]×100. Maximum and spontaneous release were determined by incubating the labelled targets with 1% Trition X-100 and media alone, respectively.
CTL Expansion. […] The cells were split if the cell concentration exceeded 1×10^6/ml and the cultures were assayed between days 13 and 15 at E:T ratios of 30, 10, 3 and 1:1 in the ^51Cr release assay or at 1×10^6/ml in the in situ IFNγ assay using the same targets as before the expansion.
The A2-supermotif cross-reactive binding peptides that were selected for further evaluation were tested in the cellular assay for the ability to induce peptide-specific CTL in normal individuals.

[3] = molecular target: HLA-B*0702 (Homo sapiens, UniProt P01889); assay: Purified HLA class I peptide binding assay, B*0702; conditions: binding affinity, HLA-B7 supermotif-bearing peptides
[4] = molecular target: HLA-B*3501 (Homo sapiens, UniProt P01889, A329T/A93T/A95T/C349S/D201E/D98Y/E176V/E187L/E204Q/E69T/I218V/K202T/L119I/Q94N/R155S/R180L/S121R/S35A/S48A/T118I/V127L/V306I/V36M/Y140S/Y91F); assay: Purified HLA class I peptide binding assay, B*3501; conditions: binding affinity, HLA-B7 supermotif-bearing peptides
[5] = molecular target: HLA-B*5101 (B51) (Homo sapiens, UniProt P01889, A329T/A93T/A95T/C349S/D138N/D201E/D98Y/E187L/E204Q/E69T/G107R/I218V/K202T/L105A/L119W/N104I/Q94N/R106L/R155S/R180L/S101N/S121T/S35A/S48A/V306I/V36M/Y195H/Y91F); assay: Purified HLA class I peptide binding assay, B51; conditions: binding affinity, HLA-B7 supermotif-bearing peptides; read-out: B*5101 nM
[6] = molecular target: HLA-B*5401 (Homo sapiens, UniProt P01889, A329T/C349S/D138N/D201E/E176V/E187T/E204Q/E69G/I76V/K202T/L119W/R155S/R180L/S121T/S35A/S48A/V127L/V306I/V36M/Y140L); assay: Purified HLA class I peptide binding assay, B*5401; conditions: binding affinity, HLA-B7 supermotif-bearing peptides
[7] = molecular target: HLA-B*5301 (Homo sapiens, UniProt P01889, A329T/A93T/A95T/C349S/D201E/D98Y/E176V/E187L/E204Q/E69T/G107R/I218V/K202T/L105A/L119I/N104I/Q94N/R106L/R155S/R180L/S101N/S121R/S35A/S48A/T118I/V127L/V306I/V36M/Y140S/Y91F); assay: Purified HLA class I peptide binding assay, B*5301; conditions: binding affinity, HLA-B7 supermotif-bearing peptides
[8] = number of donors positive over the total number of donors tested
[9] = number of donors positive over total tested, tumor targets

IC50 [3] [nM] | IC50 [4] [nM] | IC50 [5] [nM] | IC50 [6] [nM] | IC50 [7] [nM] | SMILES | CTL Wild-type [1, 8] | CTL Tumor [2, 9] | other results
 |  |  |  |  | CC(C)C[C@H](NC(=O)[C@H](Cc1ccc(O)cc1)NC(=O)[C@H](CCC(=O)O)NC(=O)[C@H](CO)NC(=O)[C@H](C)NC(=O)[C@@H](N)CCCCN)C(=O)N[C@@H](CCC(N)=O)C(=O)N[C@@H](CC(C)C)C(=O)N[C@H](C(=O)O)C(C)C | 2/4 | 0/2^ | 
 |  |  |  |  | CSCC[C@H](NC(=O)[C@@H](N)CCCCN)C(=O)N[C@H](C(=O)N[C@@H](CCC(=O)O)C(=O)N[C@@H](CC(C)C)C(=O)N[C@H](C(=O)N[C@@H](Cc1c[nH]cn1)C(=O)N[C@@H](Cc1ccccc1)C(=O)N[C@@H](CC(C)C)C(=O)N[C@@H](CC(C)C)C(=O)O)C(C)C)C(C)C | 1/1 | 0/1^ | 
 |  |  |  |  | CC[C@H](C)[C@H](N)C(=O)N[C@@H](CCSC)C(=O)N1CCC[C@H]1C(=O)N[C@@H](CCCCN)C(=O)N[C@@H](C)C(=O)NCC(=O)N[C@@H](CC(C)C)C(=O)N[C@@H](CC(C)C)C(=O)N[C@H](C(=O)N[C@H](C(=O)N[C@H](C(=O)O)C(C)C)[C@@H](C)CC)[C@@H](C)CC | 3/4 | 0/3^ | 
 |  |  |  |  | CC(C)C[C@H](NC(=O)[C@H](CC(C)C)NC(=O)[C@H](Cc1ccccc1)NC(=O)[C@H](Cc1c[nH]cn1)NC(=O)[C@@H](NC(=O)[C@H](CC(C)C)NC(=O)[C@H](CCC(=O)O)NC(=O)[C@H](C)NC(=O)[C@@H](NC(=O)[C@@H](N)CCCCN)C(C)C)C(C)C)C(=O)O | 0/1 | 0/1^ | 
 |  |  |  |  | CC[C@H](C)[C@H](NC(=O)CNC(=O)[C@H](Cc1ccccc1)NC(=O)[C@@H](NC(=O)[C@H](CC(C)C)NC(=O)[C@@H](N)CCC(N)=O)C(C)C)C(=O)N[C@@H](CCC(=O)O)C(=O)N[C@@H](CC(C)C)C(=O)N[C@@H](CCSC)C(=O)N[C@@H](CCC(=O)O)C(=O)N[C@H](C(=O)O)C(C)C |  |  | CTL Tumor ([2]; donors positive over total tested, positive result seen after the second restim.): 1/3^2
 |  |  |  |  | CC[C@H](C)[C@H](NC(=O)CNC(=O)[C@H](Cc1ccccc1)NC(=O)[C@@H](NC(=O)[C@H](CC(C)C)NC(=O)[C@H](CCC(N)=O)NC(=O)[C@H](CC(C)C)NC(=O)[C@@H](N)Cc1ccc(O)cc1)C(C)C)C(=O)N[C@@H](CCC(=O)O)C(=O)N[C@H](C(=O)O)C(C)C [YLQLVFG1EV] |  |  | CTL Wild-type ([1]; Number of donors yielding a positive response/total tested): 313
63 | 139 | 5.7 | 2.9 | 8.5 | CC[C@H](C)[C@H](NC(=O)[C@H](Cc1ccccc1)NC(=O)[C@@H](NC(=O)[C@H](Cc1ccc(O)cc1)NC(=O)[C@H](CC(C)C)NC(=O)[C@H](Cc1c[nH]cn1)NC(=O)CNC(=O)[C@@H](NC(=O)[C@@H]1CCCN1C(=O)[C@@H](N)Cc1ccccc1)[C@@H](C)CC)[C@@H](C)CC)C(=O)O |  |  | 
7.4 | 3600 | 70 | 127 | 465 | CC[C@H](C)[C@H](NC(=O)[C@H](Cc1ccc(O)cc1)NC(=O)[C@H](CO)NC(=O)[C@@H](NC(=O)[C@H](CCC(=O)O)NC(=O)[C@@H](NC(=O)[C@H](CC(C)C)NC(=O)[C@H](C)NC(=O)[C@H](CCCNC(=N)N)NC(=O)[C@@H]1CCCN1C(=O)[C@@H](N)Cc1ccccc1)[C@@H](C)CC)[C@@H](C)O)C(=O)O (H-FPRALIETSYI-OH; N-terminus and C-terminus assumed) |  |  | 
39 | 51 | 56 | 0.4 | 179 | CC[C@H](C)[C@H](NC(=O)[C@H](Cc1ccc(O)cc1)NC(=O)[C@H](CC(C)C)NC(=O)[C@H](Cc1c[nH]cn1)NC(=O)CNC(=O)[C@@H](NC(=O)[C@@H]1CCCN1C(=O)[C@@H](N)Cc1ccccc1)[C@@H](C)CC)C(=O)N[C@@H](Cc1ccccc1)C(=O)N[C@@H](C)C(=O)O (H-FPIGHLYIFA-OH; N-terminus and C-terminus assumed) |  |  | 
